# Columns and labels:
# Assay in all cases: in vitro antibacterial evaluation, MIC by broth dilution
# Type in all cases: cell-based
# Enterococcus sp. = details: broth dilution, 18 hours at 35° C.
# In short: (§1)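 Step 1: dilute antibiotic across 64-0.06 μg/mL in Muller-Hinton II […]. Step 2: inoculate at 5×10^5 CFU/mL.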
# Streptococcus sp. = details: broth dilution, 18 hours at 35° C.
# In short: as §1
# Staphylococcus sp. = details: broth dilution, 18 hours at 35° C.; for MIC Staphylococcus aureus (GC 1131): strain GC 1131; for MIC Staphylococcus aureus (ATCC 29213): strain ATCC 29213; for MIC Staphylococcus aureus (GC 3051): strain GC 3051; for MIC Staphylococcus aureus (GC 3053): strain GC 3053; for MIC Staphylococcus aureus (GC 4541): strain GC 4541; for MIC Staphylococcus aureus (GC 4542): strain GC 4542; for MIC Staphylococcus aureus-SMITH (GC 4543): strain GC 4543; for MIC Staphylococcus aureus (GC 4544): strain GC 4544; for MIC Staphylococcus aureus (GC 4545): strain GC 4545; for MIC Staphylococcus haemolyticus (GC 4546): strain GC 4546; for MIC Coagulase Negative Staphylococcus (GC 4547): strain GC 4547; for MIC Coagulase Negative Staphylococcus (GC 4548): strain GC 4548; for MIC Coagulase Negative Staphylococcus (GC 4549): strain GC 4549; for MIC Coagulase Negative Staphylococcus (GC 4551): strain GC 4551
# In short: as §1
# Escherichia coli = details: 18 hours at 35° C.
smiles,measurement,setting,value
N=C1NCC(C(O)C2NC(=O)C(Cc3ccc(OC4OC(CO)C(OC5OC6COC(CCc7ccccc7)OC6C(O)C5O)C(O)C4O)cc3)NC(=O)C(CC3CCCCC3)NC(=O)CNC(=O)C(CO)NC(=O)C(C(O)C3CNC(=N)N3C3OC(CO)C(O)C(O)C3O)NC2=O)N1 (stereo not shown) [Example 198],MIC Enterococcus avium (GC 4558),Enterococcus sp.,1 µg/mL
same,MIC Enterococcus faecalis (ATCC 29212),Enterococcus sp.,1 µg/mL
same,MIC Enterococcus faecalis (GC 2242),Enterococcus sp.,1 µg/mL
same,MIC Enterococcus faecalis (GC 2691),Enterococcus sp.,1 µg/mL
same,MIC Enterococcus faecalis (GC 3059),Enterococcus sp.,1 µg/mL
same,MIC Enterococcus faecalis (GC 4552),Enterococcus sp.,1 µg/mL
same,MIC Enterococcus faecalis (GC 4553),Enterococcus sp.,1 µg/mL
same,MIC Enterococcus faecalis (GC 4554),Enterococcus sp.,1 µg/mL
same,MIC Enterococcus faecalis (GC 6189),Enterococcus sp.,1 µg/mL
same,MIC Enterococcus faecium (GC 2243),Enterococcus sp.,1 µg/mL
same,MIC Enterococcus faecium (GC 4556),Enterococcus sp.,1 µg/mL
same,MIC Enterococcus faecium (GC 4557),Enterococcus sp.,1 µg/mL
same,MIC Enterococcus faecalis (ATCC 29212),"Enterococcus sp.; inoculum 5×10^5 CFU/mL, strain ATCC 29212",1 µg/mL
same,MIC Enterococcus faecalis (GC 2242),"Enterococcus sp.; inoculum 5×10^5 CFU/mL, strain GC 2242",1 µg/mL
same,MIC Enterococcus faecium (GC 2243),"Enterococcus sp.; inoculum 5×10^5 CFU/mL, strain GC 2243",1 µg/mL
same,MIC Enterococcus faecalis (GC 2691),"Enterococcus sp.; inoculum 5×10^5 CFU/mL, strain GC 2691",1 µg/mL
same,MIC Enterococcus faecalis (GC 3059),"Enterococcus sp.; inoculum 5×10^5 CFU/mL, strain GC 3059",1 µg/mL
same,MIC Enterococcus faecalis (GC 4552),"Enterococcus sp.; inoculum 5×10^5 CFU/mL, strain GC 4552",1 µg/mL
same,MIC Enterococcus faecalis (GC 4553),"Enterococcus sp.; inoculum 5×10^5 CFU/mL, strain GC 4553",1 µg/mL
same,MIC Enterococcus faecalis (GC 4554),"Enterococcus sp.; inoculum 5×10^5 CFU/mL, strain GC 4554",1 µg/mL
same,MIC Enterococcus faecium (GC 4556),"Enterococcus sp.; inoculum 5×10^5 CFU/mL, strain GC 4556",1 µg/mL
same,MIC Enterococcus faecium (GC 4557),"Enterococcus sp.; inoculum 5×10^5 CFU/mL, strain GC 4557",1 µg/mL
same,MIC Enterococcus avium (GC 4558),"Enterococcus sp.; inoculum 5×10^5 CFU/mL, strain GC 4558",1 µg/mL
same,MIC Enterococcus faecalis (GC 6189),"Enterococcus sp.; inoculum 5×10^5 CFU/mL, strain GC 6189",1 µg/mL
same,MIC Streptococcus agalactiae (GC 4564),Streptococcus sp.,<0.12 µg/mL
same,MIC Streptococcus pneumoniae (ATCC 6301),Streptococcus sp.,<0.12 µg/mL
same,MIC Streptococcus pneumoniae (GC 1894),Streptococcus sp.,<0.12 µg/mL
same,MIC Streptococcus pneumoniae (GC 4565),Streptococcus sp.,<0.12 µg/mL
same,MIC Streptococcus pyogenes (GC 4563),Streptococcus sp.,<0.12 µg/mL
same,MIC Streptococcus pneumoniae (ATCC 6301),"Streptococcus sp.; inoculum 5×10^5 CFU/mL, strain ATCC 6301",<0.12 µg/mL
same,MIC Streptococcus pneumoniae (GC 1894),"Streptococcus sp.; inoculum 5×10^5 CFU/mL, strain GC 1894",<0.12 µg/mL
same,MIC Streptococcus pyogenes (GC 4563),"Streptococcus sp.; inoculum 5×10^5 CFU/mL, strain GC 4563",<0.12 µg/mL
same,MIC Streptococcus agalactiae (GC 4564),"Streptococcus sp.; inoculum 5×10^5 CFU/mL, strain GC 4564",<0.12 µg/mL
same,MIC Streptococcus pneumoniae (GC 4565),"Streptococcus sp.; inoculum 5×10^5 CFU/mL, strain GC 4565",<0.12 µg/mL
same,MIC Staphylococcus aureus (GC 1131),Staphylococcus sp.; inoculum 5×10^5 CFU/mL,1 µg/mL
same,MIC Staphylococcus aureus (ATCC 29213),Staphylococcus sp.,0.5 µg/mL
same,MIC Staphylococcus aureus (GC 1131),Staphylococcus sp.,1 µg/mL
same,MIC Staphylococcus aureus (GC 3051),Staphylococcus sp.,0.5 µg/mL
same,MIC Staphylococcus aureus (GC 3053),Staphylococcus sp.,0.5 µg/mL
same,MIC Staphylococcus aureus (GC 4541),Staphylococcus sp.,0.5 µg/mL
same,MIC Staphylococcus aureus (GC 4542),Staphylococcus sp.,0.25 µg/mL
same,MIC Staphylococcus aureus-SMITH (GC 4543),Staphylococcus sp.,0.5 µg/mL
same,MIC Staphylococcus aureus (GC 4544),Staphylococcus sp.,0.5 µg/mL
same,MIC Staphylococcus aureus (GC 4545),Staphylococcus sp.,0.5 µg/mL
same,MIC Staphylococcus haemolyticus (GC 4546),Staphylococcus sp.,0.5 µg/mL
same,MIC Coagulase Negative Staphylococcus (GC 4547),Staphylococcus sp.,1 µg/mL
same,MIC Coagulase Negative Staphylococcus (GC 4548),Staphylococcus sp.,<0.12 µg/mL
same,MIC Coagulase Negative Staphylococcus (GC 4549),Staphylococcus sp.,0.5 µg/mL
same,MIC Coagulase Negative Staphylococcus (GC 4551),Staphylococcus sp.,0.5 µg/mL
same,MIC Escherichia coli (ATCC 25922),Escherichia coli,32 µg/mL
same,MIC Escherichia coli (GC 4559),Escherichia coli,32 µg/mL
same,MIC Escherichia coli (GC 4560),Escherichia coli,1 µg/mL
"CC(C1CCCCC1)C1NC(=O)CNC(=O)C(CO)NC(=O)C(C(O)C2CNC(=N)N2C2OC(CO)C(O)C(O)C2O)NC(=O)C(C(O)C2CNC(=N)N2)NC(=O)C(C[C@H]2CC[C@H](O)CC2)NC1=O (stereo partly drawn) [Example 54a, Cyclo[3-(anti-4-hydroxycyclohexyl)alanyl-3-(2-iminoimidazolidin-4-yl)seoyl-3-(3-hexopyranosyl-2-iminoimidazolidin-4-yl)serylserylglycyl-3-cyclohexyl-2-aminobutanoyl]]",MIC Enterococcus avium (GC 4558),Enterococcus sp.; Enterococcus avium (GC 4558),128 µg/mL
same,MIC Enterococcus faecalis (ATCC 29212),Enterococcus sp.; Enterococcus faecalis (ATCC 29212),>128 µg/mL
same,MIC Enterococcus faecalis (GC 4552),Enterococcus sp.; Enterococcus faecalis (GC 4552),>128 µg/mL
same,MIC Enterococcus faecalis (GC 4553),Enterococcus sp.; Enterococcus faecalis (GC 4553),>128 µg/mL
same,MIC Enterococcus faecalis (GC 4554),Enterococcus sp.; Enterococcus faecalis (GC 4554),>128 µg/mL
same,MIC Enterococcus faecalis (GC 6189),Enterococcus sp.; Enterococcus faecalis (GC 6189),>128 µg/mL
same,MIC Enterococcus faecium (GC 2243),Enterococcus sp.; Enterococcus faecium (GC 2243),>128 µg/mL
same,MIC Enterococcus faecium (GC 4556),Enterococcus sp.; Enterococcus faecium (GC 4556),>128 µg/mL
same,MIC Enterococcus faecium (GC 4557),Enterococcus sp.; Enterococcus faecium (GC 4557),128 µg/mL
same,MIC Enterococcus avium (GC 4558),Enterococcus sp.,128 µg/mL
same,MIC Enterococcus faecalis (ATCC 29212),Enterococcus sp.,>128 µg/mL
same,MIC Enterococcus faecalis (GC 2242),Enterococcus sp.,>128 µg/mL
same,MIC Enterococcus faecalis (GC 2691),Enterococcus sp.,>128 µg/mL
same,MIC Enterococcus faecalis (GC 3059),Enterococcus sp.,>128 µg/mL
same,MIC Enterococcus faecalis (GC 4552),Enterococcus sp.,>128 µg/mL
same,MIC Enterococcus faecalis (GC 4553),Enterococcus sp.,>128 µg/mL
same,MIC Enterococcus faecalis (GC 4554),Enterococcus sp.,>128 µg/mL
same,MIC Enterococcus faecalis (GC 6189),Enterococcus sp.,>128 µg/mL
same,MIC Enterococcus faecium (GC 2243),Enterococcus sp.,>128 µg/mL
same,MIC Enterococcus faecium (GC 4556),Enterococcus sp.,>128 µg/mL
same,MIC Enterococcus faecium (GC 4557),Enterococcus sp.,128 µg/mL
same,MIC Enterococcus faecalis (GC 2242),Enterococcus sp.; strain GC 2242,>128 µg/mL
same,MIC Enterococcus faecalis (GC 2691),Enterococcus sp.; strain GC 2691,>128 µg/mL
same,MIC Enterococcus faecalis (GC 3059),Enterococcus sp.; strain GC 3059,>128 µg/mL
same,MIC Streptococcus agalactiae (GC 4564),Streptococcus sp.,>128 µg/mL
same,MIC Streptococcus pneumoniae (ATCC 6301),Streptococcus sp.,>128 µg/mL
same,MIC Streptococcus pneumoniae (GC 1894),Streptococcus sp.,128 µg/mL
same,MIC Streptococcus pneumoniae (GC 4565),Streptococcus sp.,>128 µg/mL
same,MIC Streptococcus pyogenes (GC 4563),Streptococcus sp.,>128 µg/mL
same,MIC Streptococcus pneumoniae (ATCC 6301),Streptococcus sp.; strain ATCC 6301,>128 µg/mL
same,MIC Streptococcus pneumoniae (GC 1894),Streptococcus sp.; strain GC 1894,128 µg/mL
same,MIC Streptococcus pyogenes (GC 4563),Streptococcus sp.; strain GC 4563,>128 µg/mL
same,MIC Streptococcus agalactiae (GC 4564),Streptococcus sp.; strain GC 4564,>128 µg/mL
same,MIC Streptococcus pneumoniae (GC 4565),Streptococcus sp.; strain GC 4565,>128 µg/mL
same,MIC Staphylococcus aureus (ATCC 29213),Staphylococcus sp.,>128 µg/mL
same,MIC Staphylococcus aureus (GC 1131),Staphylococcus sp.,>128 µg/mL
same,MIC Staphylococcus aureus (GC 3051),Staphylococcus sp.,>128 µg/mL
same,MIC Staphylococcus aureus (GC 3053),Staphylococcus sp.,>128 µg/mL
same,MIC Staphylococcus aureus (GC 4541),Staphylococcus sp.,>128 µg/mL
same,MIC Staphylococcus aureus (GC 4542),Staphylococcus sp.,>128 µg/mL
same,MIC Staphylococcus aureus-SMITH (GC 4543),Staphylococcus sp.,>128 µg/mL
same,MIC Staphylococcus aureus (GC 4544),Staphylococcus sp.,>128 µg/mL
same,MIC Staphylococcus aureus (GC 4545),Staphylococcus sp.,>128 µg/mL
same,MIC Staphylococcus haemolyticus (GC 4546),Staphylococcus sp.,128 µg/mL
same,MIC Coagulase Negative Staphylococcus (GC 4547),Staphylococcus sp.,128 µg/mL
same,MIC Coagulase Negative Staphylococcus (GC 4548),Staphylococcus sp.,>128 µg/mL
same,MIC Coagulase Negative Staphylococcus (GC 4549),Staphylococcus sp.,>128 µg/mL
same,MIC Coagulase Negative Staphylococcus (GC 4551),Staphylococcus sp.,>128 µg/mL
same,MIC Escherichia coli (ATCC 25922),Escherichia coli,>128 µg/mL
same,MIC Escherichia coli (GC 4559),Escherichia coli,>128 µg/mL
same,MIC Escherichia coli (GC 4560),Escherichia coli,>128 µg/mL

# — patent US6914045B2, “Glycopeptide antibiotics” (Wyeth Holdings Corporation, priority 2001, dated 2005)
